Like-named read-outs stand apart in the source and are kept apart here.
Legend:
[1] = molecular target: USP1/UAF1 enzyme (Homo sapiens, UniProt O94782); experiment: USP1/UAF1 deubiquitination assay (ubiquitin-rhodamine 110 substrate); type: biochemical; conditions: read-out: USP1 IC50 (Ub-Rho)
Outline: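 Cleavage of 150 nM ubiquitin-rhodamine 110 by 0.05 nM USP1/UAF1 was followed as fluorescence (Ex480/Em540, kinetic, 30 min) in Tris-HCl pH 7.8 buffer with EDTA, BSA, DTT and Tween-20. Compounds, top 10 μM, were preincubated with enzyme 10 min; % inhibition against no-enzyme and DMSO wells gave four-parameter IC50s.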

[2] = tested on: Ub-PCNA levels in the nucleus of ES2 cells (USP1 activity); experiment: ES2 Ub-PCNA immunofluorescence (IF) assay; type: cell-based; conditions: Homo sapiens, ES-2; ES2 cells, 3 hours, Ub-PCNA immunofluorescence; read-out: USP1 IC50 (Ub-PCNA)
Procedure: USP1 is a deubiquitinating enzyme that removes ubiquitin from mono-ubiquitinated Proliferating Cell Nuclear Antigen (Ub-PCNA). The levels of Ub-PCNA in the nucleus of cells can be used to assess the activity of USP1. An immunofluorescence assay can be established to monitor Ub-PCNA levels in the ovarian cancer cell line, ES2.
An assay can be performed by first plating 5000 ES2 cells per well in black 96 well plates (Corning #3904) and then incubating overnight at 37° C. and 5% CO2. Compounds, resuspended in DMSO, can be added to the cells, to a final DMSO concentration of 0.3%. Plates can be incubated at 37° C. and 5% CO2 for 3 hours.
Cells can be then fixed and stained by first removing the media from each plate and fixing the cells with −20° C. methanol for 5 minutes at room temperature. Fixation plates can be washed with Tris buffered saline with tween (Boston Bioproducts #IBB-855) 5 times for 5 minutes each. Plates can be blocked for 1 hour with 50 μl of Odyssey blocking buffer (Licor #327-50000) at room temperature with rocking. Block can be removed from all wells and 50 μl of primary antibody was added to each well. Ub-PCNA ab (Cell Signaling Technology #13439) can be diluted at 1:400 in Odyssey blocking buffer. Plates can be sealed and incubated overnight at 4° C. Primary antibodies can be removed from the plates and plates can be washed with Tris buffered saline with tween 5 times for 5 minutes. Plates can be stained for 1 hour at room temperature with rocking with 50 μl of secondary antibodies diluted 1:10,000 in Odyssey blocking buffer at room temperature (anti-rabbit Alexa 488). Antibodies can be removed from the plates and plates can be washed with Tris buffered saline with tween 3 times for 5 minutes. Plates can be washed once with DAPI (Chemometec #910-3012) stain diluted 1:5000 (Stock solution of 500 μg/ml) in tris buffered saline with tween for 5 minutes. DAPI stain can be removed and plates can be washed one additional time for 5 minutes with tris buffered saline with tween. Wash can be removed from the plate and 100 μl tris buffered saline with tween can be added back to all wells, Plates can be sealed with Foil seals or black plate seals and plates can be stored at 4° C. until they can be imaged.
Imaging of the plates can be performed by first locating the nuclei using the DAPI stain. A mask can be created by drawing a circle slightly smaller than each nucleus. Ub-PCNA intensities can be measured for each individual nucleus counted. A histogram of all Ub-PCNA nuclear intensities measured in untreated wells can be generated and a 95% cutoff can be established. This 95% cutoff can be used to determine the number of Positive cells that have Ub-PCNA values higher than the 95% cutoff. The number of positive cells can be expressed as a percentage by dividing by the total number of cells in the well. This percent positive value can be used to graph all data and to determine AC50 values.
USP1 is a deubiquitinating enzyme that removes ubiquitin from mono-ubiquitinated
Proliferating Cell Nuclear Antigen (Ub-PCNA). The levels of Ub-PCNA in the nucleus of cells was used to assess the activity of USP1. An immunofluorescence assay was established to monitor Ub-PCNA levels in the ovarian cancer cell line, ES2.
This assay was performed by first plating 5000 ES2 cells per well in black 96 well plates (Corning #3904) and then incubated overnight at 37° C. and 5% CO2. Compounds, resuspended in DMSO, were added to the cells, to a final DMSO concentration of 0.3%. Plates were incubated at 37° C. and 5% CO2 for 3 hours.
Cells were then fixed and stained by first removing the media from each plate and fixing the cells with −20° C. methanol for 5 minutes at room temperature. Following fixation plates were washed with Tris buffered saline with tween (Boston Bioproducts ABB-855) 5 times for 5 minutes each. Plates were blocked for 1 hour with 50μ.1 of Odyssey blocking buffer (Licor #327-50000) at room temperature with rocking. […]

[3] = Liver microsomal metabolic stability, human liver microsomes (HLM); conditions: human, liver microsomes
Procedure: (§1) Samples were prepared by adding 222.5 μL of a master solution (100 mM phosphate buffer and 1 mg/mL liver microsomes (HLM or RLM)) and 25 μL of a 10 mM NADPH solution to incubation plates, which were then warmed for 10 min. Each compound was separately dissolved in DMSO to prepare 10 mM stock solutions, which were then diluted to 100 μM with acetonitrile. A reaction was started by adding 2.5 μL of the 100 μM solution of each compound to separate incubation plates such that the final concentration of for each compound in each plate was 1 μM.
(§2) 25 μL aliquots of each sample were taken at 0.5, 5, 10, 15, 20 and 30 minutes, and the reaction was stopped by adding 5 volumes of cold acetonitrile with IS (100 nM alprazolam, 200 nM caffeine and 100 nM tolbutamide). The samples were then centrifuged at 3,220 G for 30 minutes, and 100 μL of the supernatant fluid was mixed with 100 μL of ultra-pure H2O.
(§3) The samples were then analyzed by LC-MS/MS. Peak areas were determined from extracted ion chromatograms. Slope values (k) were determined by linear regression of the natural logarithm of the remaining percentage of the compound vs. incubation time curve. The in vitro half-life (in vitro t1/2) was determined from the slope value using the following equation:

[4] = Liver microsomal metabolic stability, rat liver microsomes (RLM); conditions: rat, liver microsomes, t1/2 (min) in RLM, 1 μM compound, 1 mg/mL microsomes, NADPH
Procedure: as §1, §2, §3

[5] = ADME solubility determination in PBS at pH 2.0 and pH 7.4; type: physicochemical; conditions: phosphate buffered saline, 25 °C, thermodynamic from solid
Outline: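 Solubility was read by LC-MS/MS on centrifuged supernatants, calibrated to a known-concentration standard and corrected for dilution. Compound, dried down from 10 mM DMSO stock, was equilibrated 24 h at 25° C with shaking in PBS at pH 2.0 or pH 7.4.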

[6] = pH 2, aqueous buffer, PBS pH 2.0, 25° C., read-out: Solubility at pH 2.0
[7] = pH 7.4, aqueous buffer, PBS pH 7.4, 25° C., read-out: Solubility at pH 7.4

Sequence of USP1/UAF1 enzyme (O94782 whole entry): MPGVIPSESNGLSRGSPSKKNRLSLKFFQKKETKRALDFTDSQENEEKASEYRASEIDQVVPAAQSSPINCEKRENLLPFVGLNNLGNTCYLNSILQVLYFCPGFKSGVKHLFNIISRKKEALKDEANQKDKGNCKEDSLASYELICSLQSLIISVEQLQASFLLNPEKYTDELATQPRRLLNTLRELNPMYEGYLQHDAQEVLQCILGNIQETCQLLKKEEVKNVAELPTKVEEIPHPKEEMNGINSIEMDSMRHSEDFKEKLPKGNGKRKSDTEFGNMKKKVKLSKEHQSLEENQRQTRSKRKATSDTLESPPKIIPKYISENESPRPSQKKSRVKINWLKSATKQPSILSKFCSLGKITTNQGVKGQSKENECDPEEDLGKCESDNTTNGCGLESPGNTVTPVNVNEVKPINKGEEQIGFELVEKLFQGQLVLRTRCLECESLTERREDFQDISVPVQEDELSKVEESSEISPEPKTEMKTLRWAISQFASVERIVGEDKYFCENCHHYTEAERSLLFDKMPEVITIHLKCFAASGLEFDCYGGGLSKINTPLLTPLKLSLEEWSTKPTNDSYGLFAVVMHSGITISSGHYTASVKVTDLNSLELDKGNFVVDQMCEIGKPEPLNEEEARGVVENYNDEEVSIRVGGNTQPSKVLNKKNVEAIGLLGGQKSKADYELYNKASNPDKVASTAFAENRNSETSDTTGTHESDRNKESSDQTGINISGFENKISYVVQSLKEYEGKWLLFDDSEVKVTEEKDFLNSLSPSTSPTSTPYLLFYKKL
Sequence of USP1/UAF1 enzyme (Q8TAF3 whole entry partner): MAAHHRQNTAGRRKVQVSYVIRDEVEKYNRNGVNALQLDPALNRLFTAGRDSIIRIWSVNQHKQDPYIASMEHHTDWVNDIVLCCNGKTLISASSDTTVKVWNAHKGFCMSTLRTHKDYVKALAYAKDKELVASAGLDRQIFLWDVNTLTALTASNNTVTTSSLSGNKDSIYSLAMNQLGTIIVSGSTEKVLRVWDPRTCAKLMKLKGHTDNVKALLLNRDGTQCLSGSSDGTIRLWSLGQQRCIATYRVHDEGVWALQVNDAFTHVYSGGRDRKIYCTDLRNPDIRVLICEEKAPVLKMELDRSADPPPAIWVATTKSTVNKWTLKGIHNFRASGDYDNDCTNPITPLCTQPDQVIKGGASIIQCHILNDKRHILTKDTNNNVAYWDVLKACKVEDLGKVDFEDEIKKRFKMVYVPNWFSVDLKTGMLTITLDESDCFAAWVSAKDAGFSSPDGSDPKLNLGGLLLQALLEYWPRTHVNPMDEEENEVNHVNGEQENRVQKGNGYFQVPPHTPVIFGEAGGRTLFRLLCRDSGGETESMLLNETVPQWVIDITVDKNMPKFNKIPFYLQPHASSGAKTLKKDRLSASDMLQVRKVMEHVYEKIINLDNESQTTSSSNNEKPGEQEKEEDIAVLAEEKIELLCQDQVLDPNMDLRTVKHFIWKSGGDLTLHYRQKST

SMILES | IC50 [1] | IC50 [2] | half-life at 1 μM [3] | half-life at 1 μM [4] | solubility at 24 h [5, 6] | solubility at 24 h [5, 7]
CCn1cc(C(F)(F)F)nc1-c1ccc([C@H](C)N2CCCn3nc(-c4c(Cl)cnn4C(C)C)cc32)cc1 (single isomer, unassigned) [Example 67] | < 0.1 µM | < 0.1 µM | < 25 min | < 25 min | ≥ 10 µM | < 10 µM
CCn1cc(C(F)(F)F)nc1-c1ccc([C@@H](C)N2CCCn3nc(-c4c(Cl)cnn4C(C)C)cc32)cc1 (single isomer, unassigned) [Example 68] | < 0.1 µM | < 0.1 µM | < 25 min | < 25 min | < 10 µM | < 10 µM
CCn1cc(C(F)(F)F)nc1-c1ccc(N[C@@H]2CCCn3nc(-c4c(Cl)cnn4C(C)C)cc32)cc1 (single isomer, unassigned) [Example 238] | < 0.1 µM | < 0.1 µM | > 25 min | > 25 min | < 10 µM | < 10 µM
CCn1cc(C(F)(F)F)nc1-c1ccc(N[C@H]2CCCn3nc(-c4c(Cl)cnn4C(C)C)cc32)cc1 (single isomer, unassigned) [Example 239] | < 0.1 µM | < 0.1 µM | > 25 min | > 25 min | < 10 µM | < 10 µM
CCn1cc(C(F)(F)F)nc1-c1ccc(N[C@H]2CCCn3nc(-c4c(OC)ncnc4C4CC4)cc32)cc1 (single isomer, unassigned) [Example 242] | < 0.1 µM | 0.1 to 0.5 µM | > 25 min | > 25 min | < 10 µM | < 10 µM
CCn1cc(C(F)(F)F)nc1-c1ccc(N[C@@H]2CCCn3nc(-c4c(OC)ncnc4C4CC4)cc32)cc1 (single isomer, unassigned) [Example 243] | < 0.1 µM | 0.1 to 0.5 µM | > 25 min | > 25 min | ≥ 10 µM | < 10 µM
CCn1cc(C(F)(F)F)nc1-c1ccc(O[C@H]2CCCn3nc(-c4c(OC)ncnc4C4CC4)cc32)cc1F (single isomer, unassigned) [Example 263] | < 0.1 µM | < 0.1 µM | > 25 min | > 25 min | < 10 µM | < 10 µM
CCn1cc(C(F)(F)F)nc1-c1ccc(O[C@@H]2CCCn3nc(-c4c(OC)ncnc4C4CC4)cc32)cc1F (single isomer, unassigned) [Example 264] | < 0.1 µM | 0.1 to 0.5 µM | > 25 min | > 25 min | ≥ 10 µM | < 10 µM
CCn1cc(C(F)(F)F)nc1-c1ccc([C@H](C)N2C(=O)CCn3nc(-c4c(C#N)cnn4C(C)C)cc32)cc1F (single isomer, unassigned) [Example 325] | 0.1 to 0.5 µM | 0.1 to 0.5 µM | > 25 min | > 25 min | < 10 µM | < 10 µM
CCn1cc(C(F)(F)F)nc1-c1ccc([C@H](C)n2c(=O)ccn3nc(-c4c(OC)ncnc4C4CC4)cc23)cc1F (single isomer, unassigned) [Example 334] | < 0.1 µM | 0.1 to 0.5 µM | > 25 min | > 25 min | < 10 µM | < 10 µM
CCn1cc(C(F)(F)F)nc1-c1ccc(CN2C(=O)[C@H](C)Cn3nc(-c4c(OC)ncnc4C4CC4)nc32)cc1F (single isomer, unassigned) [Example 348] | < 0.1 µM | < 0.1 µM | > 25 min | > 25 min | ≥ 10 µM | ≥ 10 µM
CCn1cc(C(F)(F)F)nc1-c1ccc(CN2C(=O)[C@@H](C)Cn3nc(-c4c(OC)ncnc4C4CC4)nc32)cc1F (single isomer, unassigned) [Example 349] | < 0.1 µM | < 0.1 µM | > 25 min | > 25 min | ≥ 10 µM | < 10 µM

Reference: patent US20230219965A1 (KSQ Therapeutics, Inc., priority 2020, published 2023)
